The results in this text go back to patent publication US20230149326A1, “PHARMACEUTICAL COMPOSITION FOR PREVENTING OR TREATING MUSCULAR WEAKNESS-RELATED DISEASES COMPRISING ALVERINE, 4-HYDROXY ALVERINE, DERIVATIVE THEREOF, OR PHARMACEUTICALLY ACCEPTABLE SALT THEREOF” (AVENTI INC., priority 2020, published 2023).

In assay [1] the test system is C2C12 cells. The assay can be described thus: Effect of alverine derivatives on promoting myoblast differentiation. Type of assay: cell-based, mouse. The settings on record: 1 μM, 4 days; compared with DMSO alone. The protocol:
C2C12 (American Type Culture Collection, CRL-1772™) cells are a myoblast cell line obtained from C3H mouse and is used in myoblast differentiation research. The C2C12 cells were cultured using growth media, and then cultured using differentiation media for differentiation induction. Here, DMEM supplemented with 10% fetal bovine serum was used as growth media (GM), and DMEM supplemented with 5% horse serum (HS) was used as differentiation media (DM).
In order to confirm the effect of an alverine derivative on promoting the differentiation of myoblasts, C2C12 cells were dispensed in the GM of Example 1.1 and cultured for 24 hours. Then, the C2C12 cells were treated with DMSO (Sigma-Aldrich), insulin, alverine (Sigma-Aldrich), or 27 types of alverine derivatives, each at a concentration of 1 μM and were induced for differentiation over 4 days. […]
After washing three times with phosphate buffer (1× PBS), PBST (blocking buffer, PBS containing 0.5% Tween 20) containing 2% bovine serum albumin was administered and allowed to react for 30 minutes to suppress nonspecific binding of antibodies. […] Thereafter, after washing with phosphate buffer (1× PBS) three times, the washed cover glass was measured for absorbance at a wavelength of 450 nm and a fluorescent image was taken using a fluorescence microscope.

The next assay concerns sarcopenia-induced mice. As to the kind of experiment: Running ability test, sarcopenia-induced mouse. Type of assay: in vivo. The settings on record: hindlimb-immobilized mice; oral 150 mg/kg/day (AC-H); compared with normal mouse. The protocol:
Running ability was measured using a treadmill designed specific for this experiment. First, aversive stimuli were provided by letting electric stimuli flow at the starting point. Before the measurement, the mice were acclimatized at 8 m/min for 10 minutes. The running time was recorded by allowing mice in each group to run in separate lanes until exhaustion. Exhaustion was defined such that when the mouse stays outside the lanes for 10 seconds or more without running, the mouse was determined to be exhausted and the time was recorded. It was not possible to repeat this experiment on the same mouse. The mouse was placed on the treadmill and the test was started at 8 rpm, and the speed was accelerated by 2 rpm every 10 minutes to a maximum speed of 20 rpm. The slope of the lane started from a zero-degree incline and then was elevated to a five-degree incline after 30 min from the start. In order to confirm a muscle strength enhancement effect of alverine citrate, sarcopenia-induced mice were administered with alverine citrate and tested for running ability. After the treadmill running test, muscle weight was measured. In particular, the hindlimb of 10 week-old C57BL/6 male mice was immobilized using a surgical stapler (Autosuture Royal 35W stapler). […] After that, running ability was measured. […] Running ability was measured by the same method as in Example 2.2.

Assay [2] relates to C2C12 cells. The assay can be described thus: Promotion of differentiation of myoblasts (MyHC fluorescent staining). Type of assay: cell-based, mouse. The protocol: C2C12 (American Type Culture Collection, CRL-1772™) cells are a myoblast cell line obtained from C3H mouse and is used in myoblast differentiation research. The C2C12 cells were cultured using growth media, and then cultured using differentiation media for differentiation induction. Here, DMEM supplemented with 10% fetal bovine serum was used as growth media (GM), and DMEM supplemented with 5% horse serum (HS) was used as differentiation media (DM). In order to confirm the effect of alverine citrate on promoting the differentiation of myoblasts, C2C12 cells were dispensed in the GM of Example 1.1 and cultured for 24 hours, and then the C2C12 cells were treated with DMSO, insulin, or alverine citrate, and induced for differentiation over 3 days. […] Here, the DMSO, insulin and alverine citrate used in the experiment were all purchased from Sigma-Aldrich. The group treated with insulin was used as the positive control group. In particular, C2C12 cells were dispensed in a 6-well plate treated with the GM of Example 1.1 at a concentration of 5×10^5 cells per plate and after 24 hours, were replaced with DMEM media supplemented with 5% HS and induced for differentiation. Thereafter, the cells were treated with DMSO, insulin (1.72 μM) or alverine citrate (0.01 μM, 0.1 μM, 1 μM or 10 μM). After 3 days, after removing the media, the cells were washed with phosphate buffer solution (1× PBS) and treated with paraformaldehyde (4%) and fixed at room temperature for 15 minutes. Then, after washing three times with phosphate buffer solution (1× PBS), PBS containing 0.3% triton X-100 was treated with permeabilization buffer and allowed to react at room temperature for 10 minutes. After washing three times with phosphate buffer solution (1× PBS), PBST (blocking buffer, PBS containing 0.5% Tween 20) containing 2% bovine serum albumin was administered and allowed to react for 30 minutes to suppress nonspecific binding of antibodies. After washing with phosphate buffer (1× PBS) three times, 100 μL of primary antibodies (SC-20641, Santa Cruz Biotechnology) to MYH3 diluted to 1:500 were added and allowed to react at room temperature for 1 hour. Thereafter, after washing with phosphate buffer (1× PBS) three times, 100 μL of secondary antibodies (Goat anti-Rabbit IgG-HRP) diluted to 1:5,000 were added and allowed to react at room temperature for 1 hour. After 1 hour, for nuclear staining, after washing with phosphate buffer (1× PBS) three times, the blocking buffer was treated with diluted DAPI dye and allowed to react at room temperature for 10 minutes. Thereafter, after washing with phosphate buffer (1× PBS) three times, the washed cover glass was measured for absorbance at a wavelength of 450 nm and a fluorescent image was taken using a fluorescence microscope. The anti-MyHC antibody stained area was analyzed using imageJ (Java-based image processing program). To confirm the effect of 4-hydroxy alverine on promoting myoblast differentiation, following the same method as Example 1, DMSO, insulin (1.72 μM), alverine citrate (0.01 μM, 0.1 μM, 1 μM or 10 μM), 4-hydroxy alverine (0.01 μM, 0.1 μM, 1 μM or 10 μM) were each administered, and differentiation to myotubes and changes in myotube thickness and diameter were observed.

In assay [3] the test system is C2C12 cells. As to the kind of experiment: Myotube atrophy induced by C26 cancer cell conditioned medium (cachexia model). Type of assay: cell-based, mouse. The settings on record: 1 μM; differentiation media with 33% CM, 3 days. The protocol: In order to confirm a cachexia treatment effect of alverine citrate and 4-hydroxy alverine, an experiment mimicking a tumor-growth environment by treatment of a cancer cell conditioned medium (CM) was conducted as an ex vivo approach. First, cancer cell CM was prepared using a C26 cancer cell line. Here, as cancel cell growth media (GM), RPMI1640 media supplemented with 10% fetal bovine serum was used. The C26 cancer cell line was cultured using a 100 mm cell culture plate and the cancer cell GM. Here, the media were removed when cell confluency reached 90%. Then, after washing with phosphate buffer (1× buffer), the prepared differentiation media were treated following the same process as in Example 1. After 24 hours, a C26 cancer cell line CM was obtained and filtered using bottle top filters (Thermo, PES, 1 L) before use.
C2C12 cells were dispensed in a 6-well plate treated with the GM of Example 1.1 at a concentration of 5×10^5 cells per plate and after 24 hours, were replaced with DMEM media supplemented with 5% HS and induced for differentiation. […] Here, by treating the experimental groups with 1 μM alverine citrate (AC) and 4-hydroxy alverine (4HA), the effect of suppressing myotube atrophy was evaluated. […] Following the same method as in Example 1.2, by florescent staining using antibodies against MyHC, the expression amount of MyHC was measured.

Regarding `CCN(CCCc1ccccc1)CCCc1ccccc1` [Alverine, N-ethyl-3-phenyl-N-(3-phenylpropyl)propan-1-amine], in the assay on C2C12 cells [1], the “differentiation of myoblasts to myotubes” value is “promoted the differentiation to myotubes”. In addition, the running time entry in the assay with sarcopenia-induced mice is reported as “increased compared to the normal mouse”.

Regarding “insulin: positive control group, purchased from Sigma-Aldrich”, the “differentiation of myoblasts to myotubes” value in the assay with C2C12 cells [2] (compared with DMSO alone, 3 days, insulin 1.72 μM, alverine citrate 0.01-10 μM) is “more differentiated to myotubes”.

As to `CCN(CCCc1ccccc1)CCCc1ccc(O)cc1` [4-hydroxy alverine, 4-[3-[ethyl(3-phenylpropyl)amino]propyl]phenol], the myotube atrophy entry in the assay with C2C12 cells [3] was “myotube atrophy was suppressed”. The “differentiation of myoblasts to myotubes” value in the assay on C2C12 cells [2] (compared with DMSO or insulin (1.72 μM), 0.01-10 μM) is on record as “more differentiated to myotubes”. In addition, the differentiation promoting effect entry in the assay with C2C12 cells [2] (compared with alverine at the same concentration) was “superior differentiation promoting effect than alverine”.
